Laboratory results: US4863918A, “Enamine quaternary compounds, methods of making and their use as muscle relaxants” (BOC, Inc., priority 1988, dated 1989)

Assays:
paw twitch [1] = assay: Twitch depression (muscle relaxant effect) in anesthetized rabbits; rabbit paw twitch; assay type: in vivo, New Zealand White rabbits; conditions: for ED90: Oryctolagus cuniculus, read-out: Equi-efficacious dose
Description: [The procedure below names another organism; the source lists this organism under the same test.] (§1) Mongrel dogs were injected with 50 mg/kg of pentobarbital until the onset of anesthesia as determined by the eyeblink reflex test. The injectable solutions prepared above were administered intravenously to the anesthesized mongrel dogs and measurements were made of the muscle relaxant effect including maximum twitch depression, onset, duration and recovery time in a clinically known manner. Each of the subjects were compared with a control animal receiving an injection of distilled water.
The same compound of the present invention as in
A number of compounds in accordance with the present invention were tested for their neuromuscular blockade Properties. Specifically, the acid addition salts of the compounds were dissolved in sterile water for injection.

[2] = Cardiovascular change (HR, BP) at equi-efficacious dose in rabbits; assay type: in vivo; conditions: rabbit
[3] = Cardiovascular change (HR, BP) at equi-efficacious dose in dogs; assay type: in vivo; conditions: Table V, dog, at equi-efficacious dose
paw twitch [4] = assay: Twitch depression (muscle relaxant effect) in anesthetized dogs; dog paw twitch; assay type: in vivo, mongrel dogs; conditions: Table V
Description: as §1

[5] = Table VI, rabbit paw twitch, at indicated dose
[6] = Table VII, rabbit paw twitch, at indicated dose
[7] = Table IV, rabbit, at equi-efficacious dose
[8] = Table IV, at equi-efficacious dose
[9] = Table VIII, rabbit paw twitch, at indicated dose
[10] = Table VI, rabbit paw twitch, at indicated dose, in s
[11] = Table IV, rabbit, at equi-efficacious dose, depolarizer, based on twitch recovery not to-f

CCOC(=O)C[N+](CC)=C1C=C(N2CCC3(CC2)OCC2(CO3)COC3(CCN(C4=CC(=[N+](CC)CC(=O)OCC)CC(C)(C)C4)CC3)OC2)CC(C)(C)C1
Onset (paw twitch [1]; [5]): 39 s

COC1C[N+](=C2C=C(N3CCCC4(C3)OCC3(CO4)COC4(CCCN(C5=CC(=[N+]6CCC(OC)(OC)C(OC)C6)CC(C)(C)C5)C4)OC3)CC(C)(C)C2)CCC1(OC)OC (stereo not drawn)
Onset (paw twitch [1]; [6]): 44.4 s

COc1cc(CC2c3c(cc(OC)c(OC)c3OC)CC[N+]2(C)CCCOC(=O)CCC(=O)OCCC[N+]2(C)CCc3cc(OC)c(OC)c(OC)c3C2Cc2cc(OC)c(OC)c(OC)c2)cc(OC)c1OC (stereo not drawn) [BW938]
BP % ([2]; in vivo): -5.2% | HR % ([2]; in vivo): -3.8% | Equi-efficacious dose (paw twitch [1]; Table IV, rabbit paw twitch): 0.010 mg/kg | Duration (DURAT.) (paw twitch [1]; [7]): 167.0 min | Onset (paw twitch [1]; [7]): 282.4 s | Recovery (RECOV.) (paw twitch [1]; [7]): 101.7 min

COc1cc2c(cc1OC)C(Cc1cc(OC)c(OC)c(OC)c1)[N+](C)(CCCOC(=O)CCC=CCCC(=O)OCCC[N+]1(C)CCc3cc(OC)c(OC)cc3C1Cc1cc(OC)c(OC)c(OC)c1)CC2 (stereo not drawn) [BW1090]
BP % [3]: -3.1% | HR % [3]: 0.7% | BP % [2, 8]: 1.2% | HR % [2, 8]: -0.4% | ED90 (paw twitch [1]; Table IV, rabbit paw twitch): 0.504 mg/kg | Duration (DURAT.) (paw twitch [1]; [7]): 8.7 min | Onset (paw twitch [1]; [7]): 48.5 s | Recovery (RECOV.) (paw twitch [1]; [7]): 7.3 min | ED90 (paw twitch [4]; Canis lupus familiaris, iv, dog paw twitch, read-out: Equi-efficacious dose): 0.39 mg/kg | Duration (DURAT.) (paw twitch [4]; dog, at equi-efficacious dose): 75.0 min | Onset (paw twitch [4]; dog, at equi-efficacious dose): 195.5 s | Recovery (RECOV.) (paw twitch [4]; dog, at equi-efficacious dose): 70.3 min

CC1C[N+](=C2C=C(N3CCCC4(CC3)OCC3(CO4)COC4(CCCN(C5=CC(=[N+]6CCC7(OCCO7)C(C)C6)CC(C)(C)C5)CC4)OC3)CC(C)(C)C2)CCC12OCCO2 (stereo not drawn) [No. 11]
Onset (paw twitch [1]; [9]): 62.1 s

CC1(C)CC(N2CCCC3(C2)OCC2(CO3)COC3(CCCN(C4=CC(=[N+]5CCCC6(CC5)OCCO6)CC(C)(C)C4)C3)OC2)=CC(=[N+]2CCCC3(CC2)OCCO3)C1 (stereo not drawn) [No. 13]
Onset (paw twitch [1]; [6]): 36.5 s

CC1(C)CC(N2CCCC3(CC2)OCC2(CO3)COC3(CCCN(C4=CC(=[N+]5CCCCCC5)CC(C)(C)C4)CC3)OC2)=CC(=[N+]2CCCCCC2)C1 (stereo not drawn) [No. 13]
Onset (paw twitch [1]; [9]): 88.3 s

CC1(C)CC(N2CCCC3(CC2)OCC2(CO3)COC3(CCCN(C4=CC(=[N+]5CCCC6(C5)OCCO6)CC(C)(C)C4)CC3)OC2)=CC(=[N+]2CCCC3(C2)OCCO3)C1 (stereo not drawn) [No. 14]
Onset (paw twitch [1]; [9]): 44.5 s

CC[N+](CC1CC1)=C1C=C(N2CCCC3(C2)OCC2(CO3)COC3(CCCN(C4=CC(=[N+](CC)CC5CC5)CC(C)(C)C4)C3)OC2)CC(C)(C)C1 (stereo not drawn) [No. 17]
Onset (paw twitch [1]; [6]): 39.3 s

CC1CCC[N+](=C2C=C(N3CCCC4(C3)OCC3(CO4)COC4(CCCN(C5=CC(=[N+]6CCCC(C)C6)CC(C)(C)C5)C4)OC3)CC(C)(C)C2)C1 (stereo not drawn) [No. 20]
Onset (paw twitch [1]; [6]): 44.9 s

CC[N+](CCC1OCCO1)=C1C=C(N2CCCC3(C2)OCC2(CO3)COC3(CCCN(C4=CC(=[N+](CC)CCC5OCCO5)CC(C)(C)C4)C3)OC2)CC(C)(C)C1 (stereo not drawn) [No. 21]
Onset (paw twitch [1]; [6]): 33.3 s

CC1(C)CC(N2CCC3(CC2)OCC2(CO3)COC3(CCN(C4=CC(=[N+](Cc5ccco5)Cc5ccco5)CC(C)(C)C4)CC3)OC2)=CC(=[N+](Cc2ccco2)Cc2ccco2)C1 [compound 11]
Onset (paw twitch [1]; [5]): 77.3 s

CC[N+](Cc1cccs1)=C1C=C(N2CCC3(CC2)OCC2(CO3)COC3(CCN(C4=CC(=[N+](CC)Cc5cccs5)CC(C)(C)C4)CC3)OC2)CC(C)(C)C1 [compound 13]
Onset (paw twitch [1]; [5]): 88.1 s

CC1(C)CC(N2CCC3(CC2)OCC2(CO3)COC3(CCN(C4=CC(=[N+]5CCCC6(CC5)OCCO6)CC(C)(C)C4)CC3)OC2)=CC(=[N+]2CCCC3(CC2)OCCO3)C1 [compound 14]
Onset (paw twitch [1]; [5]): 52.8 s

CC1(C)CC(N2CCC3(CC2)OCC2(CO3)COC3(CCN(C4=CC(=[N+]5CC6CCC(CC6)C5)CC(C)(C)C4)CC3)OC2)=CC(=[N+]2CC3CCC(CC3)C2)C1 [compound 17]
Onset (paw twitch [1]; [5]): 49.6 s

CC1(C)CC(N2CCC3(CC2)OCC2(CO3)COC3(CCN(C4=CC(=[N+]5CCCCCCC5)CC(C)(C)C4)CC3)OC2)=CC(=[N+]2CCCCCCC2)C1 [compound 20]
Onset (paw twitch [1]; [5]): 57.5 s

CCC[N+](CC1CC1)=C1C=C(N2CCC3(CC2)OCC2(CO3)COC3(CCN(C4=CC(=[N+](CCC)CC5CC5)CC(C)(C)C4)CC3)OC2)CC(C)(C)C1 [compound 21]
Onset (paw twitch [1]; [5]): 47.7 s

CC1(C)CC(N2CCC3(CC2)OCC2(CO3)COC3(CCN(C4=CC(=[N+]5CCCCCC5)CC(C)(C)C4)CC3)OC2)=CC(=[N+]2CCCCCC2)C1 [compound 24]
Onset (paw twitch [1]; [5]): 64 s

CC1CC[N+](=C2C=C(N3CCC4(CC3)OCC3(CO4)COC4(CCN(C5=CC(=[N+]6CCC(C)CC6)CC(C)(C)C5)CC4)OC3)CC(C)(C)C2)CC1 (stereo not drawn) [compound 28]
Onset (paw twitch [1]; [5]): 49.9 s

CC1(C)CC(N2CCC3(CC2)OCC2(CO3)COC3(CCN(C4=CC(=[N+]5CCCCCC5)CC(C)(C)C4)CC3)OC2)=CC(=[N+]2CCCCCC2)C1 [compound 29]
Onset (paw twitch [1]; [5]): 56.1 s

CC1(C)CC(N2CCC3(CC2)OCC2(CO3)COC3(CCN(C4=CC(=[N+]5CCC(c6ccccc6)CC5)CC(C)(C)C4)CC3)OC2)=CC(=[N+]2CCC(c3ccccc3)CC2)C1 (stereo not drawn) [compound 31]
Onset (paw twitch [1]; [10]): 105.6

CC1CCC[N+](=C2C=C(N3CCC4(CC3)OCC3(CO4)COC4(CCN(C5=CC(=[N+]6CCCC(C)C6)CC(C)(C)C5)CC4)OC3)CC(C)(C)C2)C1 (stereo not drawn) [compound 33]
Onset (paw twitch [1]; [5]): 53.1 s

C=CC[N+](CC=C)=C1C=C(N2CCC3(CC2)OCC2(CO3)COC3(CCN(C4=CC(=[N+](CC=C)CC=C)CC(C)(C)C4)CC3)OC2)CC(C)(C)C1 [compound 35]
Onset (paw twitch [1]; [5]): 61.9 s

C[N+](CCc1ccccc1)=C1C=C(N2CCC3(CC2)OCC2(CO3)COC3(CCN(C4=CC(=[N+](C)CCc5ccccc5)CC(C)(C)C4)CC3)OC2)CC(C)(C)C1 [compound 36]
Onset (paw twitch [1]; [5]): 81.9 s

CC1=C(N2CCC3(CC2)OCC2(CO3)COC3(CCN(C4=C(C)C(=[N+]5CCCCCC5)CC4)CC3)OC2)CCC1=[N+]1CCCCCC1 [compound 38]
Onset (paw twitch [1]; [10]): 100.0

CC1(C)CC(N2CCC3(CC2)OCC2(CO3)COC3(CCN(C4=CC(=[N+]5CC6(C)CC5CC(C)(C)C6)CC(C)(C)C4)CC3)OC2)=CC(=[N+]2CC3(C)CC2CC(C)(C)C3)C1 [compound 39]
Onset (paw twitch [1]; [5]): 75.9 s

CC[N+](CC)=C1C=C(N2CCC3(CC2)OCC2(CO3)COC3(CCN(C4=CC(=[N+](CC)CC)CC(C)C4)CC3)OC2)CC(C)C1 (stereo not drawn) [compound 41]
Onset (paw twitch [1]; [5]): 51 s

CC1CC(N2CCC3(CC2)OCC2(CO3)COC3(CCN(C4=CC(=[N+]5CCCC6(CC5)OCCO6)CC(C)C4)CC3)OC2)=CC(=[N+]2CCCC3(CC2)OCCO3)C1 (stereo not drawn) [compound 42]
Onset (paw twitch [1]; [5]): 75.6 s

CC1(C)CC(N2CCC3(CC2)OCC2(CO3)COC3(CCN(C4=CC(=[N+]5CCCCCC5)CC(C)(C)C4)CC3)OC2)=CC(=[N+]2CCCCCC2)C1 [compound 44]
Onset (paw twitch [1]; [5]): 67.2 s

CC1(C)CC(N2CCC3(CC2)OCC2(CO3)COC3(CCN(C4=CC(=[N+]5CCCC5)CC(C)(C)C4)CC3)OC2)=CC(=[N+]2CCCC2)C1 [compound 46]
Onset (paw twitch [1]; [5]): 62.8 s

CC1(C)CC(N2CCC3(CC2)OCC2(CO3)COC3(CCN(C4=CC(=[N+]5CCc6ccccc6C5)CC(C)(C)C4)CC3)OC2)=CC(=[N+]2CCc3ccccc3C2)C1 [compound 48]
Onset (paw twitch [1]; [10]): 113.5

CC1(C)CC(N2CCC3(CC2)OCC2(CO3)COC3(CCN(C4=CC(=[N+]5CCOCC5)CC(C)(C)C4)CC3)OC2)=CC(=[N+]2CCOCC2)C1 [compound 49]
Onset (paw twitch [1]; [5]): 58.8 s

CC1(C)CC(N2CCC3(CC2)OCC2(CO3)COC3(CCN(C4=CC(=[N+]5CCCCC5)CC(C)(C)C4)CC3)OC2)=CC(=[N+]2CCCCC2)C1 [compound 50]
Onset (paw twitch [1]; [5]): 59.9 s

CC1(C)CC(N2CCC3(CC2)OCC2(CO3)COC3(CCN(C4=CC(=[N+](CC5CC5)CC(F)(F)F)CC(C)(C)C4)CC3)OC2)=CC(=[N+](CC2CC2)CC(F)(F)F)C1 [compound 51]
Onset (paw twitch [1]; [5]): 51 s

CC1(C)CC(N2CCC3(CC2)OCC2(CO3)COC3(CCN(C4=CC(=[N+](CC5CC5)CC5CC5)CC(C)(C)C4)CC3)OC2)=CC(=[N+](CC2CC2)CC2CC2)C1 [compound 52]
Onset (paw twitch [1]; [5]): 48.5 s

CC[N+](CCC1OCCO1)=C1C=C(N2CCC3(CC2)OCC2(CO3)COC3(CCN(C4=CC(=[N+](CC)CCC5OCCO5)CC(C)(C)C4)CC3)OC2)CC(C)(C)C1 [compound 53]
Onset (paw twitch [1]; [5]): 58.6 s

CC[N+](CC)=C1C=C(N2CCC3(CC2)OCC2(CO3)COC3(CCN(C4=CC(=[N+](CC)CC)CC(C)C4)CC3)OC2)CC(C)C1 (stereo not drawn) [compound 54]
Onset (paw twitch [1]; [5]): 51 s

CCC[N+](CC1CC1)=C1C=C(N2CCC3(CC2)OCC2(CO3)COC3(CCN(C4=CC(=[N+](CCC)CC5CC5)CC(C)C4)CC3)OC2)CC(C)C1 (stereo not drawn) [compound 56]
Onset (paw twitch [1]; [5]): 62.3 s

C[N+](C)(C)CCCCCCCCCC[N+](C)(C)C [decamethonium]
BP % [2, 8]: -2.6% | HR % [2, 8]: -2.8% | ED90 (paw twitch [1]; Table IV, rabbit paw twitch): 0.165 mg/kg | Onset (paw twitch [1]; [7]): 104.0 s | Duration (DURAT.) (paw twitch [1]; [11]): 41.7 min | Recovery (RECOV.) (paw twitch [1]; [11]): 41.7 min

COc1ccc2cc1Oc1cc3c(cc1OC)CC[N+](C)(C)[C@H]3Cc1ccc(cc1)Oc1c(OC)c(OC)cc3c1[C@@H](C2)[N+](C)(C)CC3 [metocurine]
BP % [2, 8]: -1.6% | HR % [2, 8]: 0.2% | ED90 (paw twitch [1]; Table IV, rabbit paw twitch): 0.025 mg/kg | Duration (DURAT.) (paw twitch [1]; [7]): 37.8 min | Onset (paw twitch [1]; [7]): 72.4 s | Recovery (RECOV.) (paw twitch [1]; [7]): 34.9 min

descuronium
BP % ([2]; in vivo): -7.6% | HR % ([2]; in vivo): -4.1% | Equi-efficacious dose (paw twitch [1]; Table IV, rabbit paw twitch): 0.053 mg/kg | Duration (DURAT.) (paw twitch [1]; [7]): 21.5 min | Onset (paw twitch [1]; [7]): 129.4 s | Recovery (RECOV.) (paw twitch [1]; [7]): 13.1 min
